Measurements taken from patent publication US10695314B2, “Antimicrobial composition containing 7,10-epoxyoctadeca-7,9-dienoic acid as active ingredient” (priority 2016, dated 2020).
≈ marks a conversion by molar mass, not a printed value. Read-outs that look alike come from different tables or passages of the source. Values belong to the compound of their own block, whether it stands above or below them.

Key:
[1] = tested on: MDRSA 01ST001; details: 125 μg/ml
[2] = tested on: S. typhimurium KCTC 2515; assay: Checker board synergy evaluation (MIC, FICI); format: cell-based, Salmonella typhimurium; details: Salmonella enterica, 24 h; strain 2515; single agent
Method: Interactions of the selected antibiotic or 7,10-EODA of the present invention were evaluated using the checker board method (Nair et al. 2015). […] To obtain various concentrations of 7,10-EODA and antibiotic combination, a 2-fold dilution of the beta-lactam antibiotic was placed on the same plate. About 10^5 CFU/mL of microorganisms to be tested was added to the wells of each plate, and cultured for 24 hours at 37° C. without shaking. At the end of the culture period, cell growth was measured at OD600 using a spectrophotometer. Each 7,10-EODA and antibiotic combination was repeated at least three times. MIC was identified at the lowest concentration of antibiotics with growth inhibition of 90% or higher. FICAB means fractional inhibitory concentration (FIC) of drug A in the presence of drug B, and FICBA means fractional inhibitory concentration (FIC) of drug B in the presence of drug A. The fractional inhibitory concentration index (FICI) represents the sum of the FIC values of the interacting antibiotics. Interactions are based on FICI values, with FICIs less than 0.5 being categorized as synergy, FICIs 0.5 to 4 being indifferent, and FICIs greater than 4 being antagonistic. The degree of synergy was also measured based on the conventional Bliss independence model of synergy (Morones-Ramirez et al. 2013). Specifically, the degree of synergy was calculated by the following equation: S indicates degree of synergy, fAB indicates bacterial growth (optical density) when 7,10-EODA and antibiotics are used in combination, fA0 and f0B represent bacterial growth for antibiotic alone or 7,10-EODA single treatment, respectively. f00 represents bacterial growth in the absence of drug. The degree of synergy is divided into three categories based on the S value, where 0 means neutral, greater than 0 means synergism, and less than 0 means antagonism. S=(fA0/f00)(f0B/f00)−(fAB/f00) […]

[3] = tested on: MRSA strain 136; assay: Checker board synergy evaluation (MIC, FICI); format: cell-based; details: Staphylococcus aureus, 24 h
Method: (§1) Interactions of the selected antibiotic or 7,10-EODA of the present invention were evaluated using the checker board method (Nair et al. 2015). […] To obtain various concentrations of 7,10-EODA and antibiotic combination, a 2-fold dilution of the beta-lactam antibiotic was placed on the same plate. About 10^5 CFU/mL of microorganisms to be tested was added to the wells of each plate, and cultured for 24 hours at 37° C. without shaking. At the end of the culture period, cell growth was measured at OD600 using a spectrophotometer. Each 7,10-EODA and antibiotic combination was repeated at least three times. MIC was identified at the lowest concentration of antibiotics with growth inhibition of 90% or higher. FICAB means fractional inhibitory concentration (FIC) of drug A in the presence of drug B, and FICBA means fractional inhibitory concentration (FIC) of drug B in the presence of drug A. The fractional inhibitory concentration index (FICI) represents the sum of the FIC values of the interacting antibiotics. Interactions are based on FICI values, with FICIs less than 0.5 being categorized as synergy, FICIs 0.5 to 4 being indifferent, and FICIs greater than 4 being antagonistic. The degree of synergy was also measured based on the conventional Bliss independence model of synergy (Morones-Ramirez et al. 2013). Specifically, the degree of synergy was calculated by the following equation: S indicates degree of synergy, fAB indicates bacterial growth (optical density) when 7,10-EODA and antibiotics are used in combination, fA0 and f0B represent bacterial growth for antibiotic alone or 7,10-EODA single treatment, respectively. f00 represents bacterial growth in the absence of drug. The degree of synergy is divided into three categories based on the S value, where 0 means neutral, greater than 0 means synergism, and less than 0 means antagonism. S=(fA0/f00)(f0B/f00)−(fAB/f00)
(§2) The antimicrobial activity synergistic effects according to the combination treatment of 7,10-EODA and each antibiotic on methicillin-resistant Staphylococcus aureus (MRSA) strains 085, 093, 120, 136, and 165, MDRSA 01ST001, which is a multidrug-resistant Staphylococcus aureus (MDRSA) strain, E. coli ATCC 8739, and S. typhimurium KCTC 2515 were confirmed. […] Fractional inhibitory concentration indices (FICI) values accordingly were confirmed.

[4] = tested on: E. coli ATCC 8739; assay: Checker board synergy evaluation (MIC, FICI); format: cell-based; details: Escherichia coli, ATCC8739, 24 h; strain 8739; single agent
Method: as §1, §2

[5] = tested on: MRSA strain 085; assay: Checker board synergy evaluation (MIC, FICI); format: cell-based; details: Staphylococcus aureus, 24 h
Method: as §1, §2

[6] = tested on: MRSA strain 120; assay: Checker board synergy evaluation (MIC, FICI); format: cell-based; details: Staphylococcus aureus, 24 h
Method: as §1, §2

[7] = tested on: MRSA strain 093; assay: Checker board synergy evaluation (MIC, FICI); format: cell-based; details: Staphylococcus aureus, 24 h
Method: as §1, §2

[8] = tested on: MDRSA 01ST001; assay: Checker board synergy evaluation (MIC, FICI); format: cell-based; details: Staphylococcus aureus, 24 h; strain 001; single agent
Method: as §1, §2

[9] = tested on: MRSA strain 165; assay: Checker board synergy evaluation (MIC, FICI); format: cell-based; details: Staphylococcus aureus, 24 h
Method: as §1, §2

[10] = tested on: MRSA 01ST001 (MDRSA 01ST001); assay: Antimicrobial activity on solid medium (clear zone around filter paper); format: cell-based, Staphylococcus aureus; details: for clear zone on agar plate: 100 μg per filter paper, 37° C., 2 to 3 days, FIG. 1
Method: (§3) First, 1.5% of potato agar was added to the YDP medium, sterilized, and then an agar plate hardened by pouring about 20 ml in a plastic Petri dish was used. MRSA 01ST001 was diluted to about 107/ml, and then about 500 μl was dispersed evenly on the agar plate.
(§4) The size of the clear zone around the filter paper shown after the culture at 37° C. for 2 to 3 days after the inoculation was measured to confirm the degree of antimicrobial activity. At this time, vancomycin 100 μg, oxacillin 100 μg, ampicillin 100 μg, streptomycin 100 μg, and penicillin 100 μg were used as control groups.
(§5) The antimicrobial activity can be confirmed with the degree showing the clear zone on the agar plate. It is judged that the larger the clear zone, the higher the antimicrobial activity. The results are illustrated in FIG. 1 and FIG. 2.
(§6) The results are illustrated in FIG. 3. The experiment was carried out in the same manner as in Example 1-2.

[11] = tested on: Staphylococcus aureus ATCC 29213; assay: as above; format: cell-based; details: FIG. 3
Method: as §3, §4, §5, §6

[12] = tested on: MDRSA 01ST001; assay: Agar disk diffusion analysis, zone of inhibition (ZOI); format: cell-based, Staphylococcus aureus; details: for antimicrobial activity, disk diffusion: 100 μg each, FIG. 4
Method: (§7) For synergy effect screening, a 0.1 mL aliquot of MRSA or MSSA strain (5×10^5 CFU/mL) cultured in a log-phase on TSA plates was inoculated. […] A disk including DMSO alone or 7,10-EODA alone (¼×MIC) was used as a control group. The plates were cultured under conditions of […] and 24 hours, and a synergistic effect was observed when the disk periphery including both antibiotic and 7,10-EODA was at least 5 mm in zone of inhibition (ZOI).
Specifically, in order to compare the antimicrobial activity of the 7,10-EODA or the antibiotic of the present invention against the MDRSA 01ST001 strain, the MDRSA 01ST001 strain was treated with the 7,10-EODA (E 100 μg) of the present invention, streptomycin (S, 100 μg), ampicillin (A, 100 μg), oxacillin (O, 100 μg), vancomycin (V, 100 μg), or penicillin (P, 100 μg), according to the method described in Experimental Example 5.
(§8) Specifically, the minimal inhibitory concentration (MIC) was measured according to the method of Experimental Example 4 above, and the degree of inhibition (Agar diffusion analysis) (zone of inhibition; ZOI) was measured according to the method of Experimental Example 5 above.

[13] = tested on: HepG2 animal cells
Method: Simple toxicity tests were performed for the four components of 7,10-EODA, DOD, oleic acid, and DMSO. The target cells were HepG2 animal cells and the results were obtained by MTT assay.

[14] = tested on: MDRSA 01ST001; assay: microbe, parasite or virus in culture; format: cell-based; details: Staphylococcus aureus, 12 h
Source text: The results are illustrated in FIG. 11.

[15] = tested on: MDRSA 01ST001; assay: microbe, parasite or virus in culture; details: Staphylococcus aureus
[16] = tested on: Staphylococcus aureus ATCC 29213; assay: Agar disk diffusion analysis, zone of inhibition (ZOI); format: cell-based; details: strain 29213
Method: as §7, §8

[17] = tested on: MDRSA 01ST001; assay: Minimal inhibitory concentration (MIC), broth microdilution per CLSI; details: Staphylococcus aureus
[18] = tested on: Staphylococcus aureus ATCC 29213; assay: as above; format: cell-based; details: Staphylococcus aureus, ATCC29213; strain 29213 (ATCC 29213); antibiotic alone; read-out: MIC
Method: The minimum inhibitory concentration (MIC) of antibiotics and the activity of 7,10-EODA of the present invention against Staphylococcus aureus strains were measured according to the CLSI guideline (CLSI document M100-517, 2007). Specifically, each antibiotic or 7,10-EODA was diluted 2-fold (200-0.97 μg/mL) by adding MHB (Mueller-Hinton Broth) to a 96-well microtiter plate. In the mid-exponential phase (0.5 OD600), the culture was diluted 10-fold with MHB and 0.1 mL aliquots of the diluent were added to wells containing the serially diluted test reagent and cultured at 37° C. for 12 hours. About the end of the culture period, the cell density was measured at an optical density of 600 nm (OD600) using a […].
as §8

Structure (SMILES): CCCCCCCCc1ccc(CCCCCC(=O)O)o1 [7,10-EODA, 7,10-epoxyoctadeca-7,9-dienoic acid]
- time until MDRSA 01ST001 was completely killed [1]: ≤ 10 min
- MIC [2]: 500 µg/mL
- MIC [3]: 125 µg/mL
- MIC [4]: 500 µg/mL
- MIC [5]: 125 µg/mL
- MIC [6]: 125 µg/mL
- MIC [7]: 125 µg/mL
- MIC [8]: 125 µg/mL
- MIC [9]: 125 µg/mL
- clear zone on agar plate [10]: clear zone similar in size to vancoclin
- clear zone size with treatment concentration ([10]; 50, 100, 200 and 400 μg, FIG. 2): improved in a concentration-dependent manner
- antimicrobial activity on solid medium ([10]; MDRSA 01ST001, FIG. 3): higher antimicrobial activity than Staphylococcus aureus ATCC 29213
- antimicrobial activity on solid medium [11]: antimicrobial activity was exhibited
- antimicrobial activity, disk diffusion [12]: showed the antimicrobial activity
- antimicrobial activity according to concentration ([12]; 50, 100, 200 and 400 μg, FIG. 5): high in a concentration-dependent manner
- toxicity as a whole [13]: not highly toxic
- MIC90 ([14]; read-out: MIC90 concentration): ≤ 15.6 µg/mL
- inhibition at 15.6 µg/mL ([14]; read-out: reduction of residual viable microorganisms compared to the control): > 90%
- viability at 62.5 µg/mL ([15]; 10 min, read-out: residual viable microorganism concentration compared to the control): < 10%
- inhibition at 15.6 µg/mL ([15]; 4 h, read-out: decrease of residual viable microorganism concentration compared to the control): ≥ 50%

- MIC [2]: 0.6 µg/mL
- MIC ([3]; strain 136, single agent, read-out: MIC): 1000 µg/mL
- MIC [4]: 0.6 µg/mL
- MIC ([5]; strain 085, single agent, read-out: MIC): 1000 µg/mL
- MIC ([6]; strain 120, single agent, read-out: MIC): 250 µg/mL
- MIC ([7]; strain 093, single agent, read-out: MIC): 31.2 µg/mL
- MIC [8]: 1000 µg/mL
- MIC ([9]; strain 165, single agent, read-out: MIC): 2000 µg/mL
- MIC [17]: 1000 µg/mL (≈ 2860 µM)
- MIC [18]: 1.97 µg/mL (≈ 5.64 µM)
Structure (SMILES): CC1(C)S[C@@H]2[C@H](NC(=O)[C@H](N)c3ccccc3)C(=O)N2[C@H]1C(=O)O [AMP, ampicillin]
- clear zone on agar plate [10]: no clear zone appeared
- antimicrobial activity, disk diffusion [12]: resistant
- antimicrobial activity effect in combination with 7,10-EODA ([12]; antibiotic treated in combination with 7,10-EODA, Table 1 summary): strong antimicrobial activity effect
- ZOI without 7.10-EODA ([12]; strain 001, antibiotic ½×MIC alone): 7.3 ± 0.2 mm
- ZOI with 7.10-EODA ([12]; strain 001, antibiotic ½×MIC with 7,10-EODA ¼×MIC): 14.2 mm
- ZOI without 7.10-EODA ([16]; antibiotic ½×MIC alone): 16.9 ± 0.3 mm
- ZOI with 7.10-EODA ([16]; antibiotic ½×MIC with 7,10-EODA ¼×MIC): 17.0 mm
